According to patent US8710233B2 (Gruenenthal GmbH, priority 2005, dated 2014):
Where two headings read alike, the source gives them in different places.

What was measured:
Type in all cases: cell-based
vanilloid receptor (VR1) = target: T1, vanilloid receptor (VR1) (Homo sapiens, UniProt Q8NER1); test: FLIPR Ca2+ influx assay on CHO K1 cells transfected with the VR1 gene (pharmacological method II); conditions: table 4; capsaicin; read-out: Ki (human) Cap.
T1 construct: expressed in transfected cells; host or cells: CHO K1 cells (ECACC), stably transfected

[1] = target: T2, vanilloid receptor 1 (VR1/TRPV1) of the rat species (Rattus norvegicus, UniProt O35433); test: FLIPR Ca2+ influx assay on rat dorsal root ganglia cells (pharmacological method I); conditions: table 4, capsaicin
T2 construct: The spinal column is removed from decapitated rats; from tissue; host or cells: primary cells dissociated from rat dorsal root ganglia
Method in brief: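 Primary rat dorsal root ganglion cells loaded with 2 μM Fluo-4, Ca2+ influx read on FLIPR as peak fluorescence. Triplicates, at least 3 independent experiments.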

VR1/TRPV1 receptor = VR1/TRPV1 receptor (Homo sapiens, UniProt Q8NER1); test: IC50 (human) after pH stimulus; conditions: for inhibition at 1 µM / inhibition at 10 µM / inhibition at 0.1 µM: read-out: inhibition in percent, IC50 (human) after pH stimulus; for IC50: table 4
VR1/TRPV1 receptor, sequence (Q8NER1 whole entry): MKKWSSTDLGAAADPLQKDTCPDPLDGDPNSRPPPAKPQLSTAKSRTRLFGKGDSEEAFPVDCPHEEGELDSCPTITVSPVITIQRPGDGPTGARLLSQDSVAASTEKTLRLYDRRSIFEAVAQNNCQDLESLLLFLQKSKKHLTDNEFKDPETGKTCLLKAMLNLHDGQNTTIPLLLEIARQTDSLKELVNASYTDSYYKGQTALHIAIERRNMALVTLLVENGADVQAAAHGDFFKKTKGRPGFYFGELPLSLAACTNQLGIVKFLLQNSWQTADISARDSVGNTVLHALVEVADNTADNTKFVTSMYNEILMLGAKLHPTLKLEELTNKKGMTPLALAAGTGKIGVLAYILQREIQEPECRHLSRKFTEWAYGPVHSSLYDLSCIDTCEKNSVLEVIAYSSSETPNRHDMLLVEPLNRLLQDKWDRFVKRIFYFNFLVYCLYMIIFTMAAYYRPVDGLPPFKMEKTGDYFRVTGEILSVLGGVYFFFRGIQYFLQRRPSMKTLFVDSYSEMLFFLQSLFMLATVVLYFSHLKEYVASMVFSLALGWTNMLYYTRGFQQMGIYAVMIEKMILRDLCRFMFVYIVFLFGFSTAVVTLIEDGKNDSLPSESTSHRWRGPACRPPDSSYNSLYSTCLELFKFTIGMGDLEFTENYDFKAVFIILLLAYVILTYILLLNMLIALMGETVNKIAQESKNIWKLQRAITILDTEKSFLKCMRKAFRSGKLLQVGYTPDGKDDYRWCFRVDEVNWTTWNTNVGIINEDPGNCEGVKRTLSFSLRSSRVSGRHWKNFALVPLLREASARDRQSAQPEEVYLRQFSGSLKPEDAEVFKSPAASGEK

T1 sequence (Q8NER1 whole entry): as above
T2 sequence (O35433 whole entry): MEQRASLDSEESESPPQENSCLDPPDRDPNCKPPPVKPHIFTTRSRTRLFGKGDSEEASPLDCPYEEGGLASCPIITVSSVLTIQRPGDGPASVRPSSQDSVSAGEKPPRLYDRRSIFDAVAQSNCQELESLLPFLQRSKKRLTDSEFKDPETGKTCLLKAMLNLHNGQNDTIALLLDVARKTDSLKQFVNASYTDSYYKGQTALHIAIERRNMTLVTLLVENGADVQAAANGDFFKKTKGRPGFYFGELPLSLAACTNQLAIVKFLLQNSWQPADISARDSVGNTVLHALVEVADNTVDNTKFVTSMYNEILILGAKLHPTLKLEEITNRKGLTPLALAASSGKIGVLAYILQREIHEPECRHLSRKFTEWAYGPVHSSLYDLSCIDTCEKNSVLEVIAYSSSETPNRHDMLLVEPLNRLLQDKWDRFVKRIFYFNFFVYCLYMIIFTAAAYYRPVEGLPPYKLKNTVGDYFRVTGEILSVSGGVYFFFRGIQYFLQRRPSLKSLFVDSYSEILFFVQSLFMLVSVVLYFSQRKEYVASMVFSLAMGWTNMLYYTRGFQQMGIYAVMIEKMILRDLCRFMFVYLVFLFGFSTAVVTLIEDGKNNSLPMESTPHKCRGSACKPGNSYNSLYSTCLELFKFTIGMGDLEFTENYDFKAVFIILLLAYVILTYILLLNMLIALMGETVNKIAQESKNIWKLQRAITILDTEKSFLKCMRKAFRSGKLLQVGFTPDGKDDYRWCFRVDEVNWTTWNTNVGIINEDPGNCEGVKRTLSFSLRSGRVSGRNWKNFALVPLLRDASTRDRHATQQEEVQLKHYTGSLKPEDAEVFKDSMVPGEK

Ki (vanilloid receptor (VR1)) [nM] | Ki ([1]; read-out: Ki (rat) Cap.) [nM] | inhibition at 1 µM (VR1/TRPV1 receptor; @ 1 μM, ne = no effect) [%] | IC50 (VR1/TRPV1 receptor) [nM] | inhibition at 10 µM (VR1/TRPV1 receptor) [%] | inhibition at 0.1 µM (VR1/TRPV1 receptor) [%] | Ki ([1]; Ki (rat) Cap.) [nM] | inhibition in percent, IC50 (human) after pH stimulus (VR1/TRPV1 receptor; @ 1 μM, ne = no effect) | Compound
0.6 | 0.3 | 67 |  |  |  |  |  | CCCCCCOc1nc(C(F)(F)F)ccc1CNC(=O)C(C)c1ccc(NS(C)(=O)=O)c(C)c1 (stereo not drawn) [Example 257, N-(2-hexyloxy-6-trifluoromethyl-pyridin-3-ylmethyl)-2-(4-methylsulfonamido-3-methyl-phenyl)-propionamide]
2.5 | 1.3 |  | 132 |  |  |  |  | CC(C(=O)NCc1ccc(C(F)(F)F)nc1OCc1ccc(Cl)cc1)c1ccc(NS(C)(=O)=O)c(F)c1 (stereo not drawn) [Example 258, N-[2-(4-chloro-benzyloxy)-6-trifluoromethyl-pyridin-3-ylmethyl]-2-(3-fluoro-4-methylsulfonamido-phenyl)-propionamide]
15.4 | 22.8 | 51 |  | 47 |  |  |  | CC(C(=O)NCc1ccc(C(F)(F)F)nc1N1CCC(CN(C)C)(c2ccccc2)CC1)c1ccc(NS(C)(=O)=O)c(F)c1 (stereo not drawn) [Example 259, N-(4-dimethylaminomethyl-4-phenyl-6′-trifluoromethyl-3,4,5,6-tetrahydro-2H-[1,2′]bipyridinyl-3′-ylmethyl)-2-(3-fluoro-4-methylsulfonamido-phenyl)-propionamide]
21.6 | 25.3 | 51 |  | 66 |  |  |  | CC(C(=O)NCc1ccc(C(F)(F)F)nc1N1CCN(C2CCCCC2)CC1)c1ccc(NS(C)(=O)=O)c(F)c1 (stereo not drawn) [Example 260, N-[2-(4-cyclohexyl-piperazin-1-yl)-6-trifluoromethyl-pyridin-3-ylmethyl]-2-(3-fluoro-4-methylsulfonamido-phenyl)-propionamide]
1.2 | 1.7 | 58 |  |  | 6 |  |  | CC1CCN(c2nc(C(F)(F)F)ccc2CNC(=O)C(C)c2ccc(NS(C)(=O)=O)cc2)CC1 (stereo not drawn) [Example 262, 2-(4-methylsulfonamido-phenyl)-N-(4-methyl-6′-trifluoromethyl-3,4,5,6-tetrahydro-2H-[1,2′]bipyridinyl-3′-ylmethyl)-propionamide]
0.6 | 0.7 | 63 |  |  |  |  |  | CC(C(=O)NCc1ccc(C(F)(F)F)nc1CCC(C)(C)C)c1ccc(NS(C)(=O)=O)c(F)c1 (stereo not drawn) [Example 263, N-[2-(3,3-dimethyl-butyl)-6-trifluoromethyl-pyridin-3-ylmethyl]-2-(3-fluoro-4-methylsulfonamido-phenyl)-propionamide]
0.6 | 0.9 |  | 15.9 |  |  |  |  | Cc1ccc(CCc2nc(C(F)(F)F)ccc2CNC(=O)C(C)c2ccc(NS(C)(=O)=O)c(F)c2)cc1 (stereo not drawn) [Example 264, 2-(3-fluoro-4-methylsulfonamido-phenyl)-N-[2-(2-p-tolyl-ethyl)-6-trifluoromethyl-pyridin-3-ylmethyl]-propionamide]
5 | 2.5 | 33 |  |  | 17 |  |  | CC(C(=O)NCc1ccc(C(F)(F)F)nc1-c1ccc2c(c1)OCCO2)c1ccc(NS(C)(=O)=O)c(F)c1 (stereo not drawn) [Example 265, N-[2-(2,3-dihydro-benzo[1,4]dioxin-6-yl)-6-trifluoromethyl-pyridin-3-ylmethyl]-2-(3-fluoro-4-methylsulfonamido-phenyl)-propionamide]
1.6 | 1.7 |  | 24 |  |  |  |  | CCCCCCc1nc(C(F)(F)F)ccc1CNC(=O)C(C)c1ccc(NS(C)(=O)=O)c(F)c1 (stereo not drawn) [Example 267, 2-(3-fluoro-4-methylsulfonamido-phenyl)-N-(2-hexyl-6-trifluoromethyl-pyridin-3-ylmethyl)-propionamide]
0.9 | 0.8 |  | 17 |  |  |  |  | CC(C)CCCc1nc(C(F)(F)F)ccc1CNC(=O)C(C)c1ccc(NS(C)(=O)=O)c(F)c1 (stereo not drawn) [Example 268, 2-(3-fluoro-4-methylsulfonamido-phenyl)-N-[2-(4-methyl-pentyl)-6-trifluoromethyl-pyridin-3-ylmethyl]-propionamide]
0.7 |  |  | 19.7 |  |  | 0.5 |  | CC(C(=O)NCc1ccc(C(F)(F)F)nc1OCC1CCCCC1)c1ccc(NS(C)(=O)=O)c(F)c1 (stereo not drawn) [Example 270, N-(2-cyclohexylmethoxy-6-trifluoromethyl-pyridin-3-ylmethyl)-2-(3-fluoro-4-methylsulfonamido-phenyl)-propionamide]
1 |  |  | 44.4 |  |  | 1.1 |  | CC1CCC(COc2nc(C(F)(F)F)ccc2CNC(=O)C(C)c2ccc(NS(C)(=O)=O)c(F)c2)CC1 (stereo not drawn) [Example 271, 2-(3-fluoro-4-methylsulfonamido-phenyl)-N-[2-(4-methyl-cyclohexylmethoxy)-6-trifluoromethyl-pyridin-3-ylmethyl]-propionamide]
1.1 |  |  | 161 |  |  | 1.7 |  | CC(C(=O)NCc1ccc(C(F)(F)F)nc1OCC1CC1(C)C)c1ccc(NS(C)(=O)=O)c(F)c1 (stereo not drawn) [Example 279, N-[2-(2,2-dimethyl-cyclopropylmethoxy)-6-trifluoromethyl-pyridin-3-ylmethyl]-2-(3-fluoro-4-methylsulfonamido-phenyl)-propionamide]
0.8 | 1.2 | 57 |  | 62 |  |  |  | CC1CCCN(c2nc(C(F)(F)F)ccc2CNC(=O)C(C)c2ccc(NS(C)(=O)=O)c(F)c2)C1 (stereo not drawn) [Example 282, 2-(3-fluoro-4-methylsulfonamido-phenyl)-N-(3-methyl-6′-trifluoromethyl-3,4,5,6-tetrahydro-2H-[1,2′]bipyridinyl-3′-ylmethyl)-propionamide]
2.9 | 4.5 | 51 |  | 51 |  |  |  | CC(C(=O)NCc1ccc(C(F)(F)F)nc1N1CCCCC1C)c1ccc(NS(C)(=O)=O)c(F)c1 (stereo not drawn) [Example 283, 2-(3-fluoro-4-methylsulfonamido-phenyl)-N-(2-methyl-6′-trifluoromethyl-3,4,5,6-tetrahydro-2H-[1,2′]bipyridinyl-3′-ylmethyl)-propionamide]
54.9 | 48 |  |  |  |  |  | ne @ 1 μM | CC1CCN(c2nc(C(F)(F)F)ccc2CCNC(=O)C(C)c2ccc(NS(C)(=O)=O)c(F)c2)CC1 (stereo not drawn) [Example 284, 2-(3-fluoro-4-methylsulfonamido-phenyl)-N-[2-(4-methyl-6′-trifluoromethyl-3,4,5,6-tetrahydro-2H-[1,2′]bipyridinyl-3′-yl)-ethyl]-propionamide]
3.5 | 4.5 |  | 377 |  |  |  |  | CC(C(=O)NCc1ccc(C(F)(F)F)nc1N1CCC(C#N)(c2ccccc2)CC1)c1ccc(NS(C)(=O)=O)c(F)c1 (stereo not drawn) [Example 285, N-(4-cyano-4-phenyl-6′-trifluoromethyl-3,4,5,6-tetrahydro-2H-[1,2′]bipyridinyl-3′-ylmethyl)-2-(3-fluoro-4-methylsulfonamido-phenyl)-propionamide]
4.4 | 3.5 |  | 189 |  |  |  |  | CCS(=O)(=O)Nc1ccc(C(C)C(=O)NCc2ccc(C(F)(F)F)nc2N2CCC(C)CC2)cc1F (stereo not drawn) [Example 287, 2-(4-ethanesulfonylamino-3-fluoro-phenyl)-N-(4-methyl-6′-trifluoromethyl-3,4,5,6-tetrahydro-2H-[1,2′]bipyridinyl-3′-ylmethyl)-propionamide]
